Data reported in the NIST ThermoML archive (doi:10.1021/je7003337).
± gives the expanded uncertainty stated by the source.

Experiment: refractive index (Na D-line) (dimensionless)
Conditions: 298.15 K; 101.33 kPa; Liquid; Standard Abbe refractometry

Row | Structure (SMILES) | refractive index
1 | Cc1ccc(C)cc1 [1,4-dimethylbenzene] | 1.49321 ± 0.00072
2 | CCCCCC [hexane] | 1.37226 ± 0.00072
